Measured values taken from patent publication US9408910B2, “Anticancer prodrug activated by radiation or ultraviolet treatment and use thereof” (priority 2011, dated 2016).
Numbered stars: 1 amine (or outer) side, 2 acyl side, 3 side chain; on linkers, the order of the positions; unused ones are H or OH. Square brackets hold non-standard residues; d marks the D form. Peptide text beside a SMILES is read from it. * marks the point of attachment. Doxorubicin(3'-N) = COc1cccc2c1C(=O)c1c(O)c3c(c(O)c1C2=O)C[C@@](O)(C(=O)CO)C[C@@H]3O[C@H]1C[C@H](N*)[C@H](O)[C@H](C)O1; PABC = O=C(OCc1ccc(N[*:1])cc1)[*:2]

What was measured:
SCC 7 cells = assay: Cytotoxicity evaluation by in vitro MTT assay (Example 4); assay type: cell-based; details: no caspase-3 expression
Method: Cytotoxicity was evaluated by in vitro MTT assay.
In detail, SCC 7 cells were radiated at a dose of 1 Gy, 5 Gy, or 10 Gy, and then the medium was removed after 2 h, 6 h, 12 h, 24 h, or 48 h. 20 μl of MTT solution per 100 μl of medium was treated, and then reacted at 30° C. for 1 hour in the dark. Thereafter, the cells were washed with PBS three times, and the medium was removed. 100 μl of DMSO was added to dissolve MTT formazan, followed by ELASA (test wavelength: 570 nm).
That is, total 6 experiments were carried out, and the results are shown FIGS. 9a to 9f. a) Radiation of cells at a radiation dose of 1 Gy, 5 Gy, 10 Gy, 15 Gy, 20 Gy, followed by MTT assay (radiation MTT assay), b) Treatment of cells with doxorubicin at a dose of 0.1 μM, 0.5 μM, 1 μM, and 5 μM, followed by MTT assay (Doxorubicin MIT assay), c) Treatment of cells with anticancer prodrug (KGDEVD-DOX) prepared in Example 1, followed by MTT assay (KGDEVD-DOX MTT assay), d) Treatment of cells with caspase-3-treated anticancer prodrug (KGDEVD-DOX) prepared in Example 1, followed by MIT assay (Cleaved Dox by Caspase-3 MIT assay), e) Treatment of cells with doxorubicin and radiation, followed by MIT assay (Doxorubicin+RT MTT assay), f) Treatment of cells with […], followed by MTT assay (KGDEVD-DOX+RT MTT assay). […]

[1] = test system: tumor mouse models transplanted with SCC 7 cell line; details: 5 Gy radiation, then 10 mg/kg i.v. every day for 3 days; FIG. 18
Method: That is, tumor mouse models transplanted with SCC 7 cell line were radiated using a gamma knife (5 Gy). 24 hrs after radiation, the caspase-3 sensitive anticancer prodrug was administered into the animals via intravenous injection (10 mg/kg). At this time, the same dose of the drug was administered into the animals every day for 3 days, and then tumor growth and survival rate were measured every day until the experiments were terminated after radiation. The organs were removed from each experimental group after completion of the experiment, and cytotoxicity of the drug was examined.

[2] = test system: tumor mouse models transplanted with SCC 7 cell line; assay: Anti-tumor therapeutic effect of the anticancer prodrug with radiation (Example 3); assay type: in vivo; details: administered together with radiation (5 Gy, gamma knife); prodrug 3 mg/kg i.v. 24 hr after radiation and again after 2 days; FIG. 8

SMILES | cytotoxicity when caspase-3 was not expressed (SCC 7 cells) | side effects (cytotoxicity of the drug in removed organs) [1] | tumor size (tumor growth) [2]
COc1cccc2c1C(=O)c1c(O)c3c(c(O)c1C2=O)C[C@@](O)(C(=O)CO)C[C@@H]3O[C@H]1C[C@H](NC(=O)OCc2ccc(NC(=O)[C@H](CC(=O)O)NC(=O)[C@@H](NC(=O)[C@H](CCC(=O)O)NC(=O)[C@H](CC(=O)O)NC(=O)CNC(=O)[C@H](CCCCN)NC(C)=O)C(C)C)cc2)[C@H](O)[C@H](C)O1 [KGDEVD-DOX, Ac-Lys-Gly-Asp-Glu-Val-Asp-PABC-DOX] (Ac-KGDEVD[PABC]-{Doxorubicin(3'-N)}) | no cytotoxicity | reduced side effects | 
COc1cccc2c1C(=O)c1c(O)c3c(c(O)c1C2=O)C[C@@](O)(C(=O)CO)C[C@@H]3O[C@H]1C[C@H](N)[C@H](O)[C@H](C)O1 [doxorubicin] |  |  | tumor was reduced in size
